According to patent US20250092036A1, “COMPOUNDS AND COMPOSITIONS FOR MODULATING THE ACTIVITY OF ERK” (Novartis AG, priority 2023, published 2025):
Read-outs that look alike come from different tables or passages of the source.

Experiments:
[1] = target: T1, ERK2[2-360(p-T185/p-Y187)]-Avi (Homo sapiens, UniProt P28482); assay: Biochemical assay (HTRF competition assay); format: binding; settings: HTRF competition with Example 15 probe, overnight at RT; read-out: Biochemical qualified AC50
T1 construct: 400 pM ERK2[2-360(p-T185/p-Y187)]-Avi was added to the plate
Procedure: The competition assays were performed at RT in a 384-well white polystyrene, flat bottom plate (Greiner #784075) using a final reaction volume of 15 μL and the following assay buffer conditions: 50 mM MOPS, pH 7.2, 10 mM MgCl2, 0.5 mM TCEP, 0.01% Triton-X-100. 75 nL of a 10 mM compound solution in DMSO or 100% DMSO (12 point titration, final concentration: 50 μM-300 pM; final DMSO: 0.5%) was added using an acoustic liquid handler (Echo, Beckman Coulter) to wells containing 7.5 μL of 1-(6-((R)-3-(1-(5-chloro-1-((tetrahydro-2H-pyran-4-yl)methyl)-1H-indole-3-carbonyl)-4-(4-fluorophenyl)piperidine-4-carboxamido)pyrrolidin-1-yl)-6-oxohexyl)-3,3-dimethyl-5-sulfo-2-((1E,3E)-5-((E)-1,3,3-trimethyl-5-sulfoindolin-2-ylidene)penta-1,3-dien-1-yl)-3H-indol-1-ium (Example 15); 7.5 μL 400 pM SA-Tb (Cisbio, 610SATLB) and 400 pM ERK2[2-360(p-T185/p-Y187)]-Avi was added to the plate and incubated overnight at RT. HTRF signal was measured using a microplate reader (PheraStar, BMG Labtech) with excitation and emission wavelengths of […], respectively. The inhibitor dose-response curves were analyzed from the HTRF ratio signal using normalized IC50 regression curve fitting with control-based normalization.

[2] = target: T2, nanobit-large-bit-ERK2 and nanobit-small-bit-PEA15 in WM793 cells (Homo sapiens, UniProt P28482); assay: NanoBiT assay; format: cell-based; settings: WM793 nanobit stable cell line, overnight incubation; read-out: NanoBiT qualified absolute AC50
T2 construct: expressed in transfected cells
Procedure: (§1) Cancer cell media was prepared by adding 500 mL of RPMI (ThermoFisher cat ##22400-089) and 10% Fetal Bovine Serum (Gibco) for WM793 cells (ATCC Cat #CRL-2806, RRID: CVCL 8787) and F12K (Thermo Fisher cat #21127-022, 500 mL; or 21127-030, 10×500 mL)+10% FBS for PC3 (ATCC CRL-1435) cells. The entire media with supplements was filter sterilized through a 0.4 μm bottle top filter system. Cancer cell lines were detached from traditional cell culture flasks by washing three times with 1×PBS and adding an appropriate amount of 0.25% TrypLE™ Express Enzyme (1×), no phenol red (ThermoFisher cat #12604013) to create a thin layer over the cells. Trypsin was neutralized with media containing serum and proceeded to count the cells.
A nanobit stable cell line was generated using WM793 cells with nanobit-large-bit-ERK2 and nanobit-small-bit-PEA15. […] In a biological safety cabinet, cells were seeded using a sterilized small stainless steel tipped cassette on a Multi-drop Combi. Between different cell lines, the tubing of the cassette was flushed with 1× sterile PBS for 10 s. Alternatively, cells can be seeded using a Multi-flow located within a Hepa filtered robotics room using either a sterilized small sapphire jewel tipped cassette and the peristatic pump, or the attached syringe pump, depending on volume of plates per cell line needed. The plates were placed in an incubator set at 37° C., with 5% CO2 and 95% relative humidity. A 10-point, 3-fold serial dilution of compounds was prepared in 100% DMSO on a liquid handling robot with a 10 mM top concentration. 90 nl/well was dispensed in three assay plates/1 compound source plate, with the highest concentration at 30 μM. After addition of compound was complete, the plates were placed into an incubator at 37° C., with 5% CO2 and 95% relative humidity for overnight. Luminescence was captured on a plate luminometer such as an Envision or View Lux to measure Day 0 time point both select cell lines. LUM plus, gain 3500, 0.1 s and focal height 12.5 [mm] on PheraStar reader. The raw data was extracted from the instrument and normalized all fields containing test compounds to the average of all wells containing DMSO alone as neutral control. From this value, the percent growth inhibition was calculated for each compound. Dose response curves and inhibitory IC50s were generated by graphing the normalized data values against the compound concentration using either a program such as GraphPad™ or Excel Fit.

WM793 cells = assay: Cell proliferation assay (CellTiter-Glo); format: cell-based; settings: 3 d, read-out: Cell proliferation qualified AC50
Procedure: as §1
After counting the cells, the concentration of the cell solution was adjusted to seed a total of 750 cells per well in 50 μL of complete media into 384-well tissue culture treated plates. In a biological safety cabinet, cells were seeded using a sterilized small stainless steel tipped cassette on a Multi-drop Combi. Between different cell lines, the tubing of the cassette was flushed with 1× sterile PBS for 10 seconds. Alternatively, cells can be seeded using a Multi-flow located within a Hepa filtered robotics room using either a sterilized small sapphire jewel tipped cassette and the peristatic pump, or the attached syringe pump, depending on volume of plates per cell line needed. The plates were placed in an incubator set at 37° C., with 5% CO2 and 95% relative humidity. A 10-point, 3-fold serial dilutions of compounds in 100% DMSO was prepared on a liquid handling robot with a 10 mM top concentration. 100 nL/well in three assay plates/1 compound was dispensed to source plate, with the highest concentration at 20 μM. After addition of compound was complete, plates were placed into an incubator at 37° C., with 5% CO2 and 95% relative humidity for 3 d. An adequate volume of CellTiter-Glo® (Promega #G7571) detection reagent was pre-warmed to RT or in a 37° C. H2O bath. 25 μL of the reagent was added to each well using either a Multi-drop Combi or MultiFlo and incubate at RT for at least 15 min. Luminesce was captured on a plate luminometer such as an Envision or View Lux to measure Day 0 time point both select cell lines. LUM plus, gain 3500, 0.1 s and focal height 12.5 mm on PheraStar reader. At Day 3, an adequate volume of CellTiter-Glo® detection reagent was pre-warmed at RT or in a 37° C. H2O bath. A total of 25 μL of the reagent was added to each well using either a Multi-drop Combi or MultiFlo and incubate at RT for at least 15 min. Luminesce was captured on a plate luminometer such as an Envision or View Lux to measure Day 3 time point both select cell lines. LUM plus, gain 3500, 0.1 s and focal height 12.5 mm on PheraStar reader. Raw data was extracted from the instrument and all fields containing test compounds were normalized to the average of all wells containing DMSO alone from Day 3 as neutral control and Day 0 starting numbers. From this value, percent growth inhibition of each compound was calculated. Dose response curves and growth inhibitory IC50s were generated by graphing the normalized data values against the compound concentration using a program such as GraphPad™ or Excel Fit.

[3] = system: WM793 BRAFV600E tumor xenograft; assay: Anti-tumor activity and tolerability in WM793 BRAFV600E tumor xenograft in nude mice; format: in vivo
[4] = system: WM793 BRAFV600E tumor xenograft; assay: Anti-tumor activity and tolerability in WM793 BRAFV600E tumor xenograft in nude rats; format: in vivo; settings: per os
Procedure: Female RNU rats (Charles River, 4-5 weeks of age) were acclimatized into animal facility and pretreated with 100 mg/kg cyclophosphamide IP at 10 ml/kg 24 hrs prior to tumor implant. Nude rats were subcutaneously implanted on the right side with WM793 BRAF^V600E tumors via fragments (20-40 mg) from a previously passaged tumor with sterile techniques under isoflurane anesthesia using a 10 gauge trocar (n=4/group). Body weights were monitored at least once a week and calculated as (BWcurrent−BWinitial)/(BWinitial)×100%. After 1-3 weeks when palpable tumors developed, tumor volumes were monitored at least once a week by caliper measurements. Tumor volumes (mm^3) were calculated as (length×width×width)/2. Rats were randomized and selected for study based on tumor sizes (100-200 mm^3) and appropriate health conditions. Compounds of Formula I, formulated in either 20% HPBCD at 5 mg/ml or 20% HPBCD at 2.5 mg/ml were dosed at 10 ml/kg per os. Animals were euthanized based on poor health conditions, tumor volumes exceeded 2500 mm^3, or have reached the end of study. Regression % was calculated by 100×ΔT/Tinitial if ΔT<0, in which ΔT is the change of tumor volume.

T1 sequence (P28482 2-360 limits assumed): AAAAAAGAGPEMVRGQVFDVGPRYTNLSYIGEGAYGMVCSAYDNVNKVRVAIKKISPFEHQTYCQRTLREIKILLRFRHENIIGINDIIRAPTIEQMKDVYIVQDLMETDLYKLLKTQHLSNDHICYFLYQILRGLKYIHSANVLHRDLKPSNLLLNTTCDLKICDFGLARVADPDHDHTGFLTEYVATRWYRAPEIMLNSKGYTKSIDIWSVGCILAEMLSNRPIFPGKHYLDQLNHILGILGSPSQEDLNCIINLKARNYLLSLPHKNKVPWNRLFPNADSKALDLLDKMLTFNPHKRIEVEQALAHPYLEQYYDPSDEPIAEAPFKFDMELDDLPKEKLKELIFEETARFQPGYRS
T2 sequence (P28482 whole entry): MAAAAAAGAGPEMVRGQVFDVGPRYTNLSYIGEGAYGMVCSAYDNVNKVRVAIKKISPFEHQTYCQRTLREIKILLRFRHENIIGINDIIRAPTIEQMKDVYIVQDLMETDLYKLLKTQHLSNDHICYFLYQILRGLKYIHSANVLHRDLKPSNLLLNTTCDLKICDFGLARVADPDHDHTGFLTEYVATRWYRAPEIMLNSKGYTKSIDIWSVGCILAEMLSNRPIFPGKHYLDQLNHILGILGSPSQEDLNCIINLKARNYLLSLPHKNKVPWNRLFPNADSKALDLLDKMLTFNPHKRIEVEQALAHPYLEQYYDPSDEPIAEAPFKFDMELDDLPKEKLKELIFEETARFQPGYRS

Compound | AC50 [1] [nM] | AC50 [2] [nM] | AC50 (WM793 cells; Homo sapiens, WM793, 72 h) [nM] | animals sacrificed due to increased body weight loss ([3]; highest dosing group (300 mg/kg bid 2 day on, 1 day off)) | anti-tumor activity (tumor volume) at the highest dose ([3]; per os, 300 mg/kg bid 2 day on, 1 day off, 14 days) | anti-tumor activity (tumor volume) ([3]; per os, 30, 75, 150 mg/kg bid and 300 mg/kg bid 2 day on, 1 day off, 14 days) | Percent body weight change following first dose / tolerability ([3]; per os, 30-300 mg/kg bid, 14 days) | AC50 (WM793 cells) [nM] | Percent body weight change following first dose / tolerability [4] | anti-tumor activity (tumor volume) with holiday break ([4]; 50 mg/kg bid for 5 days with 2 day break) | anti-tumor activity (tumor volume) ([4]; 50 mg/kg bid for 22 days) | anti-tumor activity (tumor volume) ([4]; 22 days, dose not given)
CN1C[C@@H](F)[C@@H](NC(=O)C2(c3ccc(F)cc3)CCN(C(=O)c3c(C=O)n(CC4CCOCC4)c4ccc(Cl)cc34)CC2)C1 [Example 13, 1-(5-chloro-2-formyl-1-((tetrahydro-2H-pyran-4-yl)methyl)-1H-indole-3-carbonyl)-N-((3S,4R)-4-fluoro-1-methylpyrrolidin-3-yl)-4-(4-fluorophenyl)piperidine-4-carboxamide] | 0.48 | 56 | 54 | One mouse at the highest dosing group was sacrificed on day 11 | regression | dose dependent antitumor activity | minimal body weight loss and is well tolerated | – | – | – | – | –
CCc1c(C[C@H]2CC[C@H](OC(C)C)CC2)c2ccc(F)cc2n1C(=O)N1CCC(C(=O)N[C@H]2CC[C@H](C(=O)O)C[C@@H]2C)(c2ccc(F)cc2)CC1 [Example 2, (1S,3S,4S)-4-(1-(2-ethyl-6-fluoro-3-(((1r,4S)-4-isopropoxycyclohexyl)methyl)-1H-indole-1-carbonyl)-4-(4-fluorophenyl)piperidine-4-carboxamido)-3-methylcyclohexane-1-carboxylic acid] | < 0.28 | 190 | – | – | – | – | – | 110 | – | – | – | –
CCc1c(C[C@H]2CC[C@H](OC3CCOCC3)CC2)c2ccc(F)cc2n1C(=O)N1CCC(C(=O)N[C@H]2CC[C@H](C(=O)O)C[C@@H]2C)(c2ccc(F)cc2)CC1 [Example 5, (1S,3S,4S)-4-(1-(2-ethyl-6-fluoro-3-(((1r,4S)-4-((tetrahydro-2H-pyran-4-yl)oxy)cyclohexyl)methyl)-1H-indole-1-carbonyl)-4-(4-fluorophenyl)piperidine-4-carboxamido)-3-methylcyclohexane-1-carboxylic acid] | 0.7 | 66 | 24 | – | – | – | – | – | well tolerated | tumor regression, which is maintained | tumor regression | –
CCc1c(C[C@H]2CC[C@H](OC3CCOCC3)CC2)c2ccc(F)cc2n1C(=O)N1CC[C@@](C(=O)N[C@H]2CC[C@H](C(=O)O)C[C@@H]2C)(c2ccccc2)C[C@@H]1C [Example 1j] | < 0.28 | 30 | 29 | – | – | – | – | – | – | – | – | –
CC(C)OC1CCC(C2CN(C(=O)N3CC[C@@](C(=O)N[C@H]4CC[C@H](C(=O)O)C[C@@H]4C)(c4ccc(F)cc4)C[C@@H]3C)c3cc(F)ccc32)CC1 (stereo partly drawn) [Example 4, (1S,3S,4S)-4-((2S,4S)-1-(6-fluoro-3-((1R,4S)-4-isopropoxycyclohexyl)indoline-1-carbonyl)-4-(4-fluorphenyl)-2-methylpiperidine-4-carboxamido)-3-methylcyclohexane-1-carboxylic acid] | 0.47 | 20 | – | – | – | – | – | 3 | well tolerated | – | – | regression
CCO[C@H]1CC[C@H](Cc2c(C)n(C(=O)N3CCC(C(=O)N[C@H]4CC[C@H](C(=O)O)C[C@@H]4C)(c4ccc(F)cc4)CC3)c3cc(F)ccc23)CC1 [Example 7, (1S,3S,4S)-4-(1-(3-(((1r,4S)-4-ethoxycyclohexyl)methyl)-6-fluoro-2-methyl-1H-indole-1-carbonyl)-4-(4-fluorophenyl)piperidine-4-carboxamido)-3-methyl cyclohexane-1-carboxylic acid] | 0.33 | 80 | 96 | – | – | – | – | – | – | – | – | –
